Data published in US12544382B2, “2, 4, 6-tri-substituted pyrimidine compound as ATR kinase inhibitor” (BEIJING TIDE PHARMACEUTICAL CO., LTD., priority 2019, dated 2026).

Experiments:
[1] = target: ATR kinase (Homo sapiens (Human), UniProt Q13535); assay: ATR kinase activity assay (time-resolved fluorescence, p53 substrate phosphorylation); assay type: biochemical
Method: Biotinylated protein derived from p53 (Eurofins, art. No.: 14-952) was phosphorylated with ATR kinase. The amount of phosphorylated protein was determined by time-resolved fluorescence in this assay. The amount of phosphorylated protein was detected by anti-p53-phospho-(serine 15)-K-specific antibody (Cisbio, art. No.: 61GSTDLA) and d2 labeled anti-GST antibody (Cisbio, art. No. 61P08KAE). Before the experiment, the following working solution was prepared as required: 1× reaction buffer (20 mM HEPES PH8.0, 1% glycerol, 0.01% Brij-35), dilution buffer (20 mM HEPES PH8.0, 1% glycerol, 0.01% Brij-35, 5 mM DTT and 1% BSA), stop solution (20 mM HEPES PH8.0, 1% glycerol, 0.01% Brij-35, 250 mM EDTA), detection buffer (50 mM HEPES pH7.0, 150 mM NaCl, 267 mM KF, 0.1% sodium cholate, 0.01% Tween-20, 0.0125% sodium azide). The reagents used above are purchased from Sigma or Invitrogen, except for those where the manufacturer was mentioned.
Operations are as follows:
4× gradient dilution of compound solutions was prepared with 1× reaction buffer to obtain 9 compound solutions of different concentrations, and 2.5 μL 4× gradient dilution of compound solutions was added to a 384-well analysis plate (784075, Greiner). 4× p53 substrate working solution (40 nM) was prepared with 1× reaction buffer, and 2.5 μL 4× p53 substrate working solution was added to the 384-well analysis plate. 4×ATR/ATRIP working solution (12.8 ng/μL) was prepared with dilution buffer, and 2.5 μL 4×pATR/ATRIP working solution was added to the 384-well analysis plate. 4×ATP working solution (2 mM) was prepared with deionized water, 2.5 μL 4×ATP working solution was added to the 384-well analysis plate, and incubated at room temperature in dark for 30 minutes. 5 μL stop solution was added to the 384 analysis plate. Finally, 5 μL test mixture (0.084 ng/μL Anti-phospho-p53(ser15)-K and 5 ng/μL Anti-GST-d2) was added to the 384 well analysis plate, incubated overnight at room temperature, and the fluorescence signal was detected with ENVISION (Perkinelmer) instrument (excitation wavelength: 320 nm, emission wavelength: 665 nm and 615 nm). The inhibition rate in each well was calculated by the fluorescence intensity value of each hole: ER (Emission Ratio)=(Fluorescence intensity at 665 nm/Fluorescence intensity at 615 nm); inhibition rate=(ER positive-ER test compound)/(ER positive-ER negative)×100%, the IC50 value of compounds were calculated by standard parameter fitting software (GraphPad Prism 6.0).

[2] = tested on: TOV21G (ovarian cancer) cells; assay: In vitro cell proliferation inhibition assay (CellTiter-Glo), TOV21G; assay type: cell-based, human; conditions: 120 hours
Method: (§1) By detecting the effect of compound on cell activity in vitro in the tumor cell lines TOV21G (ovarian cancer) and MV4-11 (leukemia), the effect of compound inhibiting cell proliferation was studied in this assay.
(§2) TOV21G cells and MV4-11 cells were purchased from American Type Culture Collection (ATCC).
TOV21G cells were cultured in MCDB105/M199 medium (containing 15% […]), and used for testing when the cell confluence reaches 85% or more. Each well of a 96-well culture plate was inoculated with about 1000 cells, cultured for 24 hours, and treated with different concentrations (0-10 μM) of compound solution to be tested in triplex. Blank wells (contains medium only) and control wells (seeded cells was not treated with drug) were set. Cells were cultured for 120 hours, 40 μL Cell Titer-Glo solution (Promega, #G7573) were added to each well, incubated with shaking for 20 min in the dark, 100 μL solution was transferred from each well to a 96-well white plate (Corning, #3917), and the luminescence value was read by Biotek Synergy H1 multifunctional microplate reader.

[3] = tested on: MV4-11 (leukemia) cells; assay: In vitro cell proliferation inhibition assay (CellTiter-Glo), MV4-11; assay type: cell-based, human; conditions: MV4-11 cells
Method: as §1, §2
MV-4-11 cells were cultured in IMDM medium (containing 20% FBS), each well of a 96-well culture plate was inoculated with about 10000 cells, and treated with different concentrations (0-10 μM) of compounds to be tested in triplex. Blank wells (containing medium only) and control wells (inoculated with cells but not treated with drug) were set. Cells were cultured for 120 hours, 40 μL Cell Titer-Glo solution was added to each well, incubated with shaking for 20 min in the dark, 100 μL solution was transferred from each well to a 96-well white plate, and the luminescence value was read by Biotek Synergy H1 multifunctional microplate reader. Inhibition rate (%)=100%×(control well−test well)/(control well−blank well)

ATR kinase, sequence (Q13535 whole entry): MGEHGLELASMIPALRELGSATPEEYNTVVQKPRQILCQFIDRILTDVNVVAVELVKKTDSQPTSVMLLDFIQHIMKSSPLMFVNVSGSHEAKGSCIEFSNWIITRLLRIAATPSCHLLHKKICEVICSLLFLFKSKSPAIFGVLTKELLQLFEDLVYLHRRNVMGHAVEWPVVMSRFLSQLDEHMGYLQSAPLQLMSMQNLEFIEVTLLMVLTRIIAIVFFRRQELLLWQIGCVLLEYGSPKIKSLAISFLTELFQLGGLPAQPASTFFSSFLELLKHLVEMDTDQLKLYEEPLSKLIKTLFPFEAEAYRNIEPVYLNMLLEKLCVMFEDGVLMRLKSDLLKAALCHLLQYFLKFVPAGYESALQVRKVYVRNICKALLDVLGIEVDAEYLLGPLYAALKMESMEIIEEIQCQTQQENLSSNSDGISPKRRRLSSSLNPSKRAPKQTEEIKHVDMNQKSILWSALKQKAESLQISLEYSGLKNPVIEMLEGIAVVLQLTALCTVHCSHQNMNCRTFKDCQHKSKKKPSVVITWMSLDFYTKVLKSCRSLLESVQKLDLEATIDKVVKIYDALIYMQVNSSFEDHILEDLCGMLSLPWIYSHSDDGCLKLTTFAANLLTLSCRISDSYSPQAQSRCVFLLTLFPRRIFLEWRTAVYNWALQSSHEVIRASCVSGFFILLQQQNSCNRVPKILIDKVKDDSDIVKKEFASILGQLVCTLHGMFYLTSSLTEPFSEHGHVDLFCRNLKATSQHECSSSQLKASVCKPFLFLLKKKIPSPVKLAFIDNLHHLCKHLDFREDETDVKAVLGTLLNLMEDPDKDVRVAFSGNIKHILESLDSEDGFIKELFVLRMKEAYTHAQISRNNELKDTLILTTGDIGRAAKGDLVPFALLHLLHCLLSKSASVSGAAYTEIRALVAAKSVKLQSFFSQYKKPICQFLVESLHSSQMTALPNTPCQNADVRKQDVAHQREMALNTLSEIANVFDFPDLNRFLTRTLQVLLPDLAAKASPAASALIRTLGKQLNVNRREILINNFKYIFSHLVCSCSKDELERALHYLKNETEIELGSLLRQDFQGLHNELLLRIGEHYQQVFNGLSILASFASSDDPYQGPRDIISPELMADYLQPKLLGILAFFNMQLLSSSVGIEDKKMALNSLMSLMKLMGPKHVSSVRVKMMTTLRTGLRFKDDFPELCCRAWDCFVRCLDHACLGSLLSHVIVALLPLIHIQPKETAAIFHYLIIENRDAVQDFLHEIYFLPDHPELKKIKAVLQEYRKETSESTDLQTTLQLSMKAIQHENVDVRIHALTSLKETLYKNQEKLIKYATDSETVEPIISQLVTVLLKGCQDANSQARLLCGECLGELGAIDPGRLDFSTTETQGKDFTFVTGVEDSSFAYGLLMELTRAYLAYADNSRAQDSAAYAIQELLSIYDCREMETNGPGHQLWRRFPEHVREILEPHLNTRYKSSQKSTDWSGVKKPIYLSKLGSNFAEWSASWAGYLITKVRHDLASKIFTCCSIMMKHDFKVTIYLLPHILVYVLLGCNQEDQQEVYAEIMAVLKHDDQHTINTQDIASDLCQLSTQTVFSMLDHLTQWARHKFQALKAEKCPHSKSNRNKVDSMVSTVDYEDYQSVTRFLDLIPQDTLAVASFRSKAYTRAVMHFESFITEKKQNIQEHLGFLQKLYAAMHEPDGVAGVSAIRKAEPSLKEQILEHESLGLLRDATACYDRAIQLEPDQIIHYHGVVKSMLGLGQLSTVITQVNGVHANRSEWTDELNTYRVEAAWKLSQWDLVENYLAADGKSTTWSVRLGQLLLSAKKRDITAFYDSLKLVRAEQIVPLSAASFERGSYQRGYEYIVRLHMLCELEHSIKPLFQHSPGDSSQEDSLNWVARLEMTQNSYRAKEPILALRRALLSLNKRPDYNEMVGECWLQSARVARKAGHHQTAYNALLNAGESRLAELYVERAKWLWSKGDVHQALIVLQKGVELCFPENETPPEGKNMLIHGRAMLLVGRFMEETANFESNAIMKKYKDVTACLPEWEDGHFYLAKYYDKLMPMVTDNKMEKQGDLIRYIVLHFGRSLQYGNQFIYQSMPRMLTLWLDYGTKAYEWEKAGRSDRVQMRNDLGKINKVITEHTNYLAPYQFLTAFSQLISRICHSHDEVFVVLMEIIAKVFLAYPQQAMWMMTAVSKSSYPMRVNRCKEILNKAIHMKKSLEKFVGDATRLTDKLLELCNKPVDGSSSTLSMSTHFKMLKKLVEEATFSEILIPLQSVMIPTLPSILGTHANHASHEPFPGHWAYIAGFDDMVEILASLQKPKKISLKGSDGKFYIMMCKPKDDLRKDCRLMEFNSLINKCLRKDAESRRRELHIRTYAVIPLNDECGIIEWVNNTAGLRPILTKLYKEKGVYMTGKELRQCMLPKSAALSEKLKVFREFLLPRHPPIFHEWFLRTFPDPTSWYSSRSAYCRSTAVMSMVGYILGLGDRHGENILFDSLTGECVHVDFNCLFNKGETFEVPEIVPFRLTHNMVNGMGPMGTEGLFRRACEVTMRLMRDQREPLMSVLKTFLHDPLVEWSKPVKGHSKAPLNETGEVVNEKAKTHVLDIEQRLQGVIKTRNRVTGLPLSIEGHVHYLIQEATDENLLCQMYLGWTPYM
ATR kinase, sequence (Q8WXE1 whole entry partner): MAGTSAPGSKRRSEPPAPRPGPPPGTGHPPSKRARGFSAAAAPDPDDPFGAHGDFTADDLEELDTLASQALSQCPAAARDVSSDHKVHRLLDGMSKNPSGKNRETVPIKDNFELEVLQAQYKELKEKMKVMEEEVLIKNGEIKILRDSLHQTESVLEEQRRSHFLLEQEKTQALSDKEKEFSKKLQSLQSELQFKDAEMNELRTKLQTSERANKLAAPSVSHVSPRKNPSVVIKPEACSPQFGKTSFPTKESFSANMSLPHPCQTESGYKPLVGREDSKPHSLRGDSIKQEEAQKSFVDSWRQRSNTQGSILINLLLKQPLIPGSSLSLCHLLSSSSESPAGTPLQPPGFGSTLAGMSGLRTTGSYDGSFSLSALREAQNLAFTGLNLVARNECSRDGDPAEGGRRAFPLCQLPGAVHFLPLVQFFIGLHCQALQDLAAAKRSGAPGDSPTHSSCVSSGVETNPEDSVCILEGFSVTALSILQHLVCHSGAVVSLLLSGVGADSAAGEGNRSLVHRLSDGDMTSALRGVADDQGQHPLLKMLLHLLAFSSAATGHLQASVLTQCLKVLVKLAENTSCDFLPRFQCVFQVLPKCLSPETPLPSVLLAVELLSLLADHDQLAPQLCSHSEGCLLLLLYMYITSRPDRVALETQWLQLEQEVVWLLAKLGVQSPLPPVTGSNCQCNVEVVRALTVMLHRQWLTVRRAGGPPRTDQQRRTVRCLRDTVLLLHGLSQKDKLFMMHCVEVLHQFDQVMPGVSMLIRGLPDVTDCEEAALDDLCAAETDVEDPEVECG

IC50 [1] [nM] | IC50 ([2]; Homo sapiens) [nM] | IC50 ([3]; Homo sapiens, MV4-11, 120 h) [nM] | IC50 [2] [nM] | IC50 ([3]; 120 hours) [nM] | Compound
< 1 | 160 | 70 |  |  | Cc1c(-c2cc(N3CCOC[C@H]3C)nc(-c3cncc4[nH]ccc34)n2)c(C(F)(F)F)nn1C1CCNCC1 [Compound D20]
82 |  |  | 1050 | 1360 | CNc1nc2cc(F)ccc2n1-c1nc(-c2c(C(F)(F)F)nn(C3CCNCC3)c2C)cc(N2CCOC[C@H]2C)n1 [Compound D16]
6 | 920 | 780 |  |  | Cc1c(-c2cc(N3CCOC[C@H]3C)nc(-c3ccnc4[nH]ccc34)n2)c(C(F)(F)F)nn1C1CCNCC1 [Compound D2]
10 |  |  | 920 | 640 | CNc1nc2ccccc2n1-c1nc(-c2c(C(F)(F)F)nn(C3CCCNC3)c2C)cc(N2CCOC[C@H]2C)n1 (stereo partly drawn) [Compound D45]
8 |  |  | 640 | 370 | Cc1nn(C2CCNCC2)c(C(F)(F)F)c1-c1nc(-c2ccnc3[nH]ccc23)nc(N2CCOC[C@H]2C)c1F [Compound D11]
29 | 940 | 570 |  |  | CNc1nc2cc(F)ccc2n1-c1nc(-c2c(C)nn(CS(C)(=O)=O)c2C(F)(F)F)cc(N2CCOC[C@H]2C)n1 [Compound D41]
2 |  |  | 500 | 550 | Cc1nn(C2CCNCC2)c(C(F)(F)F)c1-c1cc(C23CCOCC2C3)nc(-c2cc(F)cc3[nH]ccc23)n1 (stereo not drawn) [Compound D49]
6 |  |  | 1330 | 530 | Cc1nn(C2CCNCC2)c(C(F)(F)F)c1-c1cc(N2CCOC[C@H]2C)nc(-n2cnc3ccccc32)n1 [Compound D46]
16 | 850 | 920 |  |  | CNc1nc2ccc(F)cc2n1-c1nc(-c2c(C)nn(C3CCNCC3)c2C(F)(F)F)cc(N2CCOC[C@H]2C)n1 [Compound D22]
31 |  |  | 280 | 290 | COc1cc(-c2nc(-c3c(C)nn(C4CCNCC4)c3C(F)(F)F)cc(N3CCOC[C@H]3C)n2)c2cc[nH]c2n1 [Compound D3]
32 |  |  | 680 | 660 | CNc1nc2cc(F)ccc2n1-c1nc(-c2c(C)nn(CC3(C)COC3)c2C(F)(F)F)cc(N2CCOC[C@H]2C)n1 [Compound D51]
97 | 2010 | 1730 |  |  | CNc1nc2cc(F)ccc2n1-c1nc(-c2c(C(F)(F)F)nn(CS(C)(=O)=O)c2C)cc(N2CCOC[C@H]2C)n1 [Compound D42]
19 | 210 | 540 |  |  | CNc1nc2ccccc2n1-c1nc(-c2c(C)nn(CS(C)(=O)=O)c2C(F)(F)F)cc(N2CCOC[C@H]2C)n1 [Compound D43]
3 | 430 | 220 |  |  | CC(=O)Nc1nc2ccccc2n1-c1nc(-c2c(C)nn(C3CCNCC3)c2C(F)(F)F)cc(N2CCOC[C@H]2C)n1 [Compound D8]
< 1 | 510 | 280 |  |  | Cc1c(-c2cc(N3CCOC[C@H]3C)nc(-c3cccc4[nH]ccc34)n2)c(C(F)(F)F)nn1C1CCNCC1 [Compound D18]
5 |  |  | 600 | 550 | Cc1c(-c2cc(N3CCOC[C@H]3C)nc(-c3cc(F)cc4[nH]ccc34)n2)c(C(F)(F)F)nn1C1CCNCC1 [Compound D47]
4 | 180 | 90 |  |  | Cc1nn([C@H]2CCNCC2(F)F)c(C)c1-c1cc(N2CCOC[C@H]2C)nc(-c2cc(F)cc3[nH]ccc23)n1 [Compound D54a]
13 |  |  | 1450 | 1310 | CNc1nc2cc(F)ccc2n1-c1nc(-c2c(C(F)(F)F)nn(C3CCCNC3)c2C)cc(N2CCOC[C@H]2C)n1 (stereo partly drawn) [Compound D33]
 | 1030 | 990 |  |  | CNc1nc2cc(Cl)ccc2n1-c1nc(-c2c(C)nn(C3CCNCC3)c2C(F)(F)F)cc(N2CCOC[C@H]2C)n1 [Compound D25]
14 |  |  |  |  | Cc1nn(C2CCN(S(C)(=O)=O)C2)c(C)c1-c1cc(N2CCOC[C@H]2C)nc(-c2ccnc3[nH]ccc23)n1 (stereo partly drawn) [Compound A23]

IC50 [1] [nM] | IC50 ([2]; Homo sapiens) [nM] | IC50 ([3]; Homo sapiens, MV4-11, 120 h) [nM] | IC50 [2] [nM] | IC50 ([3]; 120 hours) [nM] | Compound
21 |  |  |  |  | Cc1c(-c2cc(N3CCOC[C@H]3C)nc(-c3ccnc4[nH]ccc34)n2)c(C(F)(F)F)nn1C [Compound A8]
27 |  |  |  |  | Cc1nn(C2CCCN(C)C2)c(C)c1-c1cc(N2CCOC[C@H]2C)nc(-c2ccnc3[nH]ccc23)n1 (stereo partly drawn) [Compound A32]
25 |  |  |  |  | Cc1ccc(S(=O)(=O)N(C)C)cc1-c1cc(N2CCOC[C@H]2C)nc(-c2ccnc3[nH]ccc23)n1 [Compound A10]
44 |  |  |  |  | Cc1nn(CC(C)(C)O)c(C)c1-c1cc(N2CCOC[C@H]2C)nc(-c2ccnc3[nH]ccc23)n1 [Compound A12]
63 |  |  |  |  | CCN1CCN(S(=O)(=O)c2ccc(C)c(-c3cc(N4CCOC[C@H]4C)nc(-c4ccnc5[nH]ccc45)n3)c2)CC1 [Compound A35]
66 |  |  |  |  | COc1ccc(S(=O)(=O)C(C)C)cc1-c1cc(N2CCOC[C@H]2C)nc(-c2ccnc3[nH]ccc23)n1 [Compound A13]
1770 |  |  |  |  | Cc1nn(C2CCNCC2)c(C(F)(F)F)c1-c1cc(N2CCOC[C@H]2C)nc(-n2c(CO)nc3cc(F)ccc32)n1 [Compound D32]
979 |  |  |  |  | Cc1nn(C(C)C)c(C)c1-c1nc(-c2ccnc3[nH]ccc23)cc(N2CCOC[C@H]2C)n1 [Compound B6]
1720 |  |  |  |  | Cc1c(-c2nc(-c3ccnc4[nH]ccc34)cc(N3CCOC[C@H]3C)n2)cnn1C [Compound B4]
48 |  |  |  |  | CCN1CCC(n2nc(C)c(-c3cc(N4CCOC[C@H]4C)nc(-c4ccnc5[nH]ccc45)n3)c2C)C1 (stereo partly drawn) [Compound A31]
2270 |  |  |  |  | C[C@@H]1COCCN1c1cc(-c2ccnn2C2CCCCC2)nc(-c2ccnc3[nH]ccc23)n1 [Compound A17]
37 |  |  |  |  | Cc1nn(C2CCN(C)CC2)c(C)c1-c1cc(N2CCOC[C@H]2C)nc(-c2ccnc3[nH]ccc23)n1 [Compound A37]
3 |  |  |  | 810 | Cc1c(-c2cc(N3CCOC[C@H]3C)nc(-c3cc(F)cc4[nH]ccc34)n2)c(C(F)(F)F)nn1C1CC2(CNC2)C1 [Compound D50]
2700 |  |  |  |  | CSc1nc2cc(F)ccc2n1-c1nc(-c2c(C)nn(C3CCNCC3)c2C(F)(F)F)cc(N2CCOC[C@H]2C)n1 [Compound D31]
11 |  |  |  |  | Cc1nn(CS(C)(=O)=O)c(C)c1-c1cc(N2CCOC[C@H]2C)nc(-c2ccnc3[nH]ccc23)n1 [Compound A41]
18 |  |  |  |  | Cc1nn(CC2COC2)c(C)c1-c1cc(N2CCOC[C@H]2C)nc(-c2ccnc3[nH]ccc23)n1 [Compound A19]
110 |  |  |  |  | CCN(C)S(=O)(=O)c1ccc(OC)c(-c2cc(N3CCOC[C@H]3C)nc(-c3ccnc4[nH]ccc34)n2)c1 [Compound A30]
21 |  |  |  |  | Cc1nn(C(C)C)c(C)c1-c1cc(N2CCOC[C@H]2C)nc(-c2ccnc3[nH]ccc23)n1 [Compound A15]
15 |  |  |  |  | Cc1nn(CCCO)c(C)c1-c1cc(N2CCOC[C@H]2C)nc(-c2ccnc3[nH]ccc23)n1 [Compound A11]
81 |  |  |  |  | Cc1nn(CCCN(C)C)c(C)c1-c1cc(N2CCOC[C@H]2C)nc(-c2ccnc3[nH]ccc23)n1 [Compound A22]
